{"source": "ChEMBL document CHEMBL1152101", "about": "“Boric acid effect ont he hydrolysis of 4-nitrophenyl 2,3-dihydroxybenzoate: mimic of borate inhibition of serine proteases” (Bioorg Med Chem Lett, 1993)", "key": {"[1]": {"experiment": "Tested for hydrolysis in presence of boric acid, dissociation constant was evaluated at the pH 9.5(Apparent inhibition constant)", "type": "ADME"}, "[2]": {"experiment": "Tested for hydrolysis in presence of boric acid by UV spectrophotometry, dissociation constant was evaluated at the pH < 8", "type": "ADME"}, "[3]": {"experiment": "Hydrolysis rate constant was determined", "type": "ADME"}, "[4]": {"experiment": "Tested for hydrolysis in presence of boric acid, rate constant was evaluated at the pH 8.5", "type": "ADME", "details": "buffer"}, "[5]": {"experiment": "Tested for hydrolysis in presence of phenylboronic acid, rate constant was evaluated at the pH 9.5", "type": "ADME", "details": "buffer"}, "[6]": {"experiment": "pKa value was determined", "type": "physicochemical"}, "[7]": {"target": "T1, Chymotrypsinogen A (Bos taurus, UniProt P00766)", "experiment": "Tested for inhibition of hydrolysis in presence of alpha-chymotrypsin and phenylboronic acid(Apparent inhibition constant)"}, "[8]": {"target": "T1, Chymotrypsinogen A", "experiment": "Tested for inhibition of hydrolysis in presence of alpha-chymotrypsin and […](Apparent inhibition constant)"}, "[9]": {"experiment": "Tested for hydrolysis in presence of boric acid, dissociation constant was evaluated at the pH 8.5(Apparent inhibition constant)", "type": "ADME"}, "[10]": {"experiment": "Tested for hydrolysis in presence of phenylboronic acid, dissociation constant was evaluated at the pH 9.5(Apparent inhibition constant)", "type": "ADME"}, "[11]": {"experiment": "Tested for hydrolysis in presence of boric acid, rate constant was evaluated at the pH 9.5", "type": "ADME", "details": "buffer"}}, "data": [{"compound": "O=C(Oc1ccc([N+](=O)[O-])cc1)c1cccc(O)c1O", "values": [{"measurement": "Ki", "setting": "[1]", "value": 230, "unit": "µM"}, {"measurement": "KB", "setting": "[2]", "value": 0.00005, "unit": "s⁻¹"}, {"measurement": "K1", "setting": "[3]", "value": 0.000033, "unit": "s⁻¹"}, {"measurement": "K2", "setting": "[3]", "value": 0.00026, "unit": "s⁻¹"}, {"measurement": "KB", "setting": "[4]", "value": 0.000018, "unit": "s⁻¹"}, {"measurement": "KB", "setting": "[5]", "value": 0.000017, "unit": "s⁻¹"}, {"measurement": "pKa", "setting": "[6]", "value": 8.8}, {"measurement": "Ki", "setting": "[7]", "value": 200, "unit": "µM"}, {"measurement": "Ki", "setting": "[8]", "value": 40000, "unit": "µM"}, {"measurement": "Ki", "setting": "[9]", "value": 380, "unit": "µM"}, {"measurement": "Ki", "setting": "[10]", "value": 250, "unit": "µM"}, {"measurement": "KB", "setting": "[11]", "value": 0.000022, "unit": "s⁻¹"}]}]}
